In US20060079453A1, “Hla binding peptides and their uses” (priority 2002, published 2006):
Where two headings read alike, the source gives them in different places. No end group written: not given here.

Legend:
Assay in all cases: biochemical
Type in all cases: binding
HLA-DR DRB4*0101 (DR53) = HLA-DR DRB4*0101 (DR53) (Homo sapiens, UniProt P01903+P13762, G164S)
HLA-DR DRB1*0701 (DR7) = HLA-DR DRB1*0701 (DR7) (Homo sapiens, UniProt P01903+P01911, A100R/A102G/A103Q/D57E/D86V/E43K/F76Y/K127E/L162R/M171V/P40G/Q125H/Q99D/R33Q/R42Y/R54Q/S133A/S66F/T210M/V115G/Y107V/Y59L/Y89S)
HLA-DR DRB1*1101 (DR11) = HLA-DR DRB1*1101 (DR11) (Homo sapiens, UniProt P01903+P01911, A100R/A169T/A87E/I96F/K41T/L162R/M171V/P40S/Q125H/Q178H/Q39Y/Q99D/R42S/S66Y/T262R/V115G/W38E); conditions: DRB1 *1101
HLA-DR DRB1*1101 (DR11), sequence (P01903 26-254 limits assumed, other chains not shown): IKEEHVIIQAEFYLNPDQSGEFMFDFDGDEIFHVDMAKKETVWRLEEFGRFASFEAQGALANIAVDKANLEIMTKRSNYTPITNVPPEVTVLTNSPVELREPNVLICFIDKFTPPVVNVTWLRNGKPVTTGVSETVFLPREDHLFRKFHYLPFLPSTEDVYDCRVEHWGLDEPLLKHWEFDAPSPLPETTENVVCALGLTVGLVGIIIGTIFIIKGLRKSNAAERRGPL

HLA-DR DRB1*1302 (DR13) = HLA-DR DRB1*1302 (DR13) (Homo sapiens, UniProt P01903+P01911, A100E/A169T/K41T/L162R/M171V/P40S/Q125H/Q178H/Q39Y/Q99D/R42S/S66N/T262R/V115G/W38E/Y61H); conditions: DRBI *1302
HLA-DR DRB1*1302 (DR13), sequence (P01903 26-254 limits assumed, other chains not shown): as above

HLA-DR DRB5*0101 (DR51) = HLA-DR DRB5*0101 (DR51) (Homo sapiens, UniProt P01903+Q30154); conditions: DRB5 *0101
HLA-DR DRB1*0901 (DR9) = HLA-DR DRB1*0901 (DR9) (Homo sapiens, UniProt P01903+P01911, A100R/A103E/D57H/D86V/F55Y/F60I/F76Y/I96F/K127E/L162R/M171V/P40D/Q125H/Q99R/R33Q/R42F/S133A/S66N/T210M/V115G/W38K/Y107V/Y59G/Y89S); conditions: DRB1 *0901
HLA-DR DRB1*0405 (DR4) = HLA-DR DRB1*0405 (DR4) (Homo sapiens, UniProt P01903+P01911, A100R/A169T/D86S/F76Y/I96L/K127E/L162R/M171V/N62H/P40V/Q125Y/R42H/S133A/S149N/S66Y/V115G/V209L/W38E)
HLA-DR DRB1*0101 (DR1) = HLA-DR DRB1*0101 (DR1) (Homo sapiens, UniProt P01903+P01911, A100R/D57E/F55L/F60I/F76Y/I96L/L162R/M171V/P40L/Q125E/R42F/V115G/Y59C)
HLA-DR DRB1*0301 (DR3) = HLA-DR DRB1*0301 (DR3) (Homo sapiens, UniProt P01903+P01911, A100K/A102G/A103R/A169T/F55Y/I96L/K41T/L162R/M171V/P40S/Q125H/Q178H/Q39Y/R42S/S66N/T106N/T262R/W38E/Y61H)
HLA-DR DRB1*0301 (DR3), sequence (P01903 26-254 limits assumed, other chains not shown): as above

HLA-DR DRB1*1501 (DR15) = HLA-DR DRB1*1501 (DR15) (Homo sapiens, UniProt P01903+P01911)
HLA-DR DRB1*0802 (DR8) = HLA-DR DRB1*0802 (DR8) (Homo sapiens, UniProt P01903+P01911, A100R/A103L/A169T/F76Y/H45Y/I96F/K41T/L162R/M171V/P40S/Q125H/Q178H/Q39Y/Q99D/R218S/R42G/S66Y/V115G/W38E)
HLA-DR DRB1*0401 (DR4) = HLA-DR DRB1*0401 (DR4) (Homo sapiens, UniProt P01903+P01911, A100K/A169T/F76Y/I96L/K127E/L162R/M171V/N62H/P40V/Q125Y/R42H/S133A/S149N/S66Y/V115G/V209L/W38E)

Compound | IC50 (HLA-DR DRB4*0101 (DR53); DRB4 *0101) | IC50 (HLA-DR DRB1*0701 (DR7); DRB1 *0701) | IC50 (HLA-DR DRB1*1101 (DR11)) | IC50 (HLA-DR DRB1*1302 (DR13)) | IC50 (HLA-DR DRB5*0101 (DR51)) | IC50 (HLA-DR DRB1*0901 (DR9)) | IC50 (HLA-DR DRB1*0405 (DR4); DRB1 *0405) | IC50 (HLA-DR DRB1*0101 (DR1); DRB1 *0101) | IC50 (HLA-DR DRB1*0301 (DR3)) | IC50 (HLA-DR DRB1*1501 (DR15); DRBI *1501) | IC50 (HLA-DR DRB1*0802 (DR8)) | IC50 (HLA-DR DRB1*0401 (DR4); DRB1 *0401) | IC50 (HLA-DR DRB1*0802 (DR8); read-out: DRB1 *0802) | IC50 (HLA-DR DRB1*0401 (DR4); read-out: DRB1 *0401) | IC50 (HLA-DR DRB1*0405 (DR4); read-out: DRB1 *0405) | IC50 (HLA-DR DRB1*0301 (DR3); read-out: DRB1 *0301) | IC50 (HLA-DR DRB4*0101 (DR53)) | IC50 (HLA-DR DRB1*1501 (DR15)) | IC50 (HLA-DR DRB1*0701 (DR7); read-out: DRB1 *0701) | IC50 (HLA-DR DRB1*0101 (DR1); read-out: DRB1 *0101)
CC[C@H](C)[C@H](NC(=O)[C@@H](NC(=O)[C@H](CC(C)C)NC(=O)[C@H](CC(=O)O)NC(=O)[C@@H](NC(=O)[C@H](Cc1ccccc1)NC(=O)[C@H](C)NC(=O)[C@H](Cc1ccccc1)NC(=O)[C@H](CC(=O)O)NC(=O)[C@H](CC(C)C)NC(=O)[C@@H](N)C(C)C)[C@@H](C)O)[C@@H](C)O)C(=O)N[C@H](C(=O)N[C@@H](Cc1ccc(O)cc1)C(=O)N[C@@H](CCCNC(=N)N)C(=O)N[C@@H](CC(=O)O)C(=O)O)C(C)C | 11.3 µM | 0.23 µM | 7.47 µM | 3.1 µM | 14.8 µM | 0.252 µM | 0.721 µM | 0.354 µM | 0.03 µM | 0.645 µM |  |  |  |  |  |  |  |  |  | 
MKHILYISFYFILVN |  |  |  |  | > 9.52 µM |  | 3.38 µM | 5.89 µM |  |  | 15.6 µM | 0.189 µM |  |  |  |  |  |  |  | 
WAGLLLDTRTLEVQS |  |  | 21 µM | 0.092 µM | > 102 µM |  | 1.24 µM | 2.02 µM | 0.022 µM | 3.47 µM | > 61.2 µM | 0.049 µM |  |  |  |  |  |  |  | 
LQQLFLSTLSFVCPW | 0.022 µM | 0.272 µM | 11.7 µM |  | 36.9 µM | 0.152 µM | 0.094 µM | 0.121 µM | 2.04 µM |  |  |  |  |  |  |  |  |  |  | 
ESTGMTPEKVPVSEVMGT |  |  |  |  |  |  |  |  |  |  |  |  | > 31.2 µM | > 47.4 µM | > 71.4 µM | > 50 µM |  |  |  | 
CC[C@H](C)[C@H](NC(=O)[C@H](Cc1ccc(O)cc1)NC(=O)[C@@H]1CCCN1C(=O)[C@H](CC(=O)O)NC(=O)[C@H](CCC(=O)O)NC(=O)[C@H](CC(C)C)NC(=O)[C@@H](NC(=O)[C@H](C)NC(=O)[C@@H](N)CCC(=O)O)C(C)C)C(=O)N[C@@H](CC(C)C)C(=O)N[C@@H](CC(C)C)C(=O)N[C@H](C(=O)N[C@@H](CO)C(=O)N[C@@H](CO)C(=O)N[C@@H](CCCCN)C(=O)O)C(C)C |  |  | 4.38 µM | > 10.3 µM |  | 15 µM | 0.681 µM | 0.034 µM | 0.479 µM |  |  | 0.233 µM |  |  |  |  | > 26.4 µM | > 50.8 µM |  | 
CC(C)C[C@H](NC(=O)[C@H](C)NC(=O)[C@H](Cc1ccccc1)NC(=O)[C@@H](N)[C@@H](C)O)C(=O)N[C@@H](Cc1c[nH]c2ccccc12)C(=O)N[C@@H](CCCNC(=N)N)C(=O)N[C@H](C(=O)N[C@@H](CO)C(=O)N[C@@H](C)C(=O)N[C@@H](CCC(=O)O)C(=O)N[C@@H](CCC(=O)O)C(=O)N[C@@H](Cc1ccc(O)cc1)C(=O)O)C(C)C | > 6.61 µM | 0.927 µM | 0.342 µM | > 2.57 µM | 25.5 µM | 0.517 µM | 0.072 µM | > 5.28 µM | 88.3 µM | > 12.7 µM |  | 0.342 µM |  |  |  |  |  |  |  | 
RTSIRASLTFNRGFK | 0.079 µM | 0.411 µM | 4.81 µM |  |  |  | 5.13 µM |  | 0.256 µM |  | 5.48 µM | 0.77 µM |  |  |  |  |  |  |  | 
GIVEQTTTSITSLYQ |  | 0.788 µM |  |  |  |  | 0.818 µM | 6.35 µM | 107 µM |  | > 54.4 µM | 0.121 µM |  |  |  |  |  |  |  | 
LRTLQQMLLGTLQVV | 0.088 µM | 6.91 µM | 0.907 µM | 0.616 µM | > 46.6 µM | 5.08 µM | 0.079 µM | 0.08 µM | > 3750 µM | 1.7 µM |  | 0.437 µM |  |  |  |  |  |  |  | 
FAGIRRDGLLLRLVD |  |  |  |  |  |  |  |  |  |  |  |  | 7.65 µM | 7.09 µM | > 3.37 µM | 0.0036 µM |  |  | 41.1 µM | 
PVIKNSIKLRL | 0.198 µM | 4.09 µM | 2.77 µM | 0.077 µM | 1.04 µM | 2.85 µM | 278 µM | 1.55 µM | 0.198 µM | 2.58 µM |  | 34.2 µM |  |  |  |  |  |  |  | 
WYRYSVYGTTLEKLT | 1.04 µM | 0.107 µM |  | 0.805 µM | 0.062 µM | 0.284 µM | 0.0085 µM | 0.163 µM | 26.6 µM | 0.421 µM |  | 0.249 µM |  |  |  |  |  |  |  | 
GEALSTLVLNRLKVG | 1.02 µM | 3.19 µM | 0.079 µM | 0.029 µM | 0.046 µM | 20.2 µM | 14.8 µM | 0.719 µM | 11.8 µM |  |  | 3.05 µM |  |  |  |  |  |  |  | 
CC[C@H](C)[C@H](NC(=O)CNC(=O)[C@H](CC(C)C)NC(=O)CNC(=O)[C@H](CCCCN)NC(=O)[C@@H](NC(=O)[C@@H](NC(=O)[C@H](Cc1ccccc1)NC(=O)[C@H](CS)NC(=O)[C@@H](NC(=O)[C@@H](N)CCC(N)=O)C(C)C)[C@@H](C)CC)[C@@H](C)O)C(=O)N[C@@H](CO)C(=O)N[C@@H](Cc1ccc(O)cc1)C(=O)NCC(=O)N[C@@H](CCCNC(=N)N)C(=O)O | 0.876 µM | 0.091 µM | 0.031 µM | 0.092 µM | 3.95 µM |  | 0.295 µM |  | 167 µM | 3.55 µM | 0.041 µM |  |  |  |  |  |  |  |  | 
CSCC[C@H](NC(=O)[C@H](CCC(N)=O)NC(=O)[C@@H](NC(=O)[C@H](Cc1ccccc1)NC(=O)[C@H](C)NC(=O)[C@@H](NC(=O)CN)[C@@H](C)O)C(C)C)C(=O)N1CCC[C@H]1C(=O)N[C@@H](C)C(=O)N[C@@H](Cc1c[nH]cn1)C(=O)NCC(=O)N[C@@H](CC(C)C)C(=O)N[C@@H](Cc1ccccc1)C(=O)N1CCC[C@H]1C(=O)N[C@@H](Cc1c[nH]c2ccccc12)C(=O)O |  | 0.09 µM | 0.017 µM | 2.82 µM | 0.043 µM |  | 0.018 µM | 0.0016 µM | 37.3 µM | 0.0012 µM | 0.099 µM | 0.0081 µM |  |  |  |  |  |  |  | 
VCLLFYSKVRKYRYY | 2.34 µM | 0.258 µM | 0.326 µM |  |  | 1.8 µM | 0.073 µM | 0.96 µM | 0.276 µM | 0.061 µM |  |  |  |  |  |  |  |  |  | 
YGRILHYLKAKEDSH |  | 0.9 µM |  |  |  |  | 0.023 µM | 0.03 µM | 42.4 µM |  | 0.704 µM | 2.34 µM |  |  |  |  |  |  |  | 
RVIKNSIRLTL |  | 2.24 µM | 1.74 µM | 0.032 µM | 8.83 µM | 2.57 µM | 80.7 µM | 3.65 µM | 0.584 µM | 4.32 µM |  | 9.25 µM |  |  |  |  |  |  |  | 
LKLVYRDDFPYAVCR | 3.83 µM | 29 µM | 0.698 µM | 0.699 µM | 9.16 µM | 18.7 µM | 0.83 µM | 0.778 µM | 0.237 µM | 1.88 µM |  | 0.123 µM |  |  |  |  |  |  |  | 
ALIYNYGLLYCFRKD |  |  |  |  |  |  |  |  |  |  |  |  | > 33.3 µM |  | 0.551 µM | 9.82 µM |  |  |  | 0.137 µM
CYSLYGTTLEQQYNK | 0.189 µM | > 9.96 µM | > 14.7 µM | > 13.7 µM | > 10.7 µM |  | 0.071 µM | 1.09 µM |  | 5.06 µM | 26 µM |  |  |  |  |  |  |  |  | 
